Like-named read-outs stand apart in the source and are kept apart here.
Experiments:
[1] = clinical; conditions: human, in vivo
Source text: To determine whether Abraxane PK has enough variability to benefit from therapeutic drug monitoring, we performed a PK analysis using all published literature on Abraxane PK. […] J Clin Oncol. 23:7785-93.). […] It is expected that Genexol-PM and Nanoxel would have the same PK variations. The wide variability of Abraxane was rather surprising. The role of therapeutic drug monitoring is to reduce this variability. Though PK profiles for Abraxane and Taxol were similar, there are differences. These differences, however, are small and could be masked by the large variation in PK of Abraxane/Taxol.
To determine whether medication used in assisted reproduction, i.e. FSH (follicle stimulating hormone), we performed a PK analysis using published literature on FSH PK. […] To compare it to 5-FU data, we used variability as SD/Mean.

[2] = tested on: patients with metastatic colorectal cancer; conditions: cited from earlier work
[3] = initial BSA dose, blood plasma concentration measured

O=c1[nH]cc(F)c(=O)[nH]1 [5-FU, 5-fluorouracil]
AUC variability (range as % of the mean) [1]: 138% | AUC variability as SD/Mean [1]: 34.42% | AUC ([1]; mean): 9050 ng·h/mL | AUC ([1]; range): 3900 to 16400 ng·h/mL | Median survival ([2]; BSA arm): 16 months | Response rate ([2]; BSA group (dosing by body surface area)): 18.3% | Response rate ([2]; dose-adjusted group (PK-guided dosing)): 33.6% | Patients found to be over-dosed (doses adjusted downward) [2, 3]: Seventeen | Patients found to be under-dosed (doses adjusted upwards) [2, 3]: Fifty eight | Improvement of overall survival at two years ([2]; personalized 5-FU dose management versus BSA arm): 48% | Median survival ([2]; personalized 5-FU dose management): 22 months | Grade III/IV 5-FU related toxicities ([2]; personalized dose adjustment versus BSA dosing): significantly lower
